Laboratory results taken from US10405547B2, “Substituted cyclic amides as herbicides” (FMC Corporation, priority 2015, dated 2019).

Assays:
Assay type in all cases: in vivo
[1] = test system: corn (Zea mays); assay: Test A postemergence, corn; conditions: visual injury, 0 to 100 scale (0 no effect, 100 complete control), approximately 10 days
Summary of the method: (§1)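 Injury scores (0 no effect, 100 complete control) were assigned by visually comparing treated with untreated plants after about 10 days of greenhouse growth. Seeds for soil treatment were sown into a loam and sand blend, while plants for foliar treatment grew in pots of that same blend.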

[2] = test system: ryegrass, Italian (Lolium multiflorum); assay: Test A preemergence, Italian ryegrass; conditions: 0 to 100 scale (0 no effect, 100 complete control)
Summary of the method: as §1

[3] = test system: barnyardgrass (Echinochloa crus-galli); assay: Test A postemergence, barnyardgrass; conditions: visual injury, 0 to 100 scale (0 no effect, 100 complete control), approximately 10 days
Summary of the method: as §1

[4] = test system: ragweed (common ragweed, Ambrosia elatior); assay: Test A postemergence, ragweed; conditions: visual injury, 0 to 100 scale (0 no effect, 100 complete control), approximately 10 days
Summary of the method: as §1

[5] = test system: foxtail, giant (Setaria faberii); assay: Test A preemergence, giant foxtail; conditions: 0 to 100 scale (0 no effect, 100 complete control)
Summary of the method: as §1

[6] = test system: rice (Oryza sativa); assay: Test B flooded paddy test, rice; conditions: applied to paddy water, visual rating after 13 to 15 days, scale 0 (no effect) to 100 (complete control)
Summary of the method: (§2)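 Visual injury ratings against untreated controls, taken 13 to 15 days after compound was added to paddy water standing 3 cm above the soil.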

[7] = test system: wheat (Triticum aestivum); assay: Test A postemergence, wheat; conditions: visual injury, 0 to 100 scale (0 no effect, 100 complete control), approximately 10 days
Summary of the method: as §1

[8] = test system: ryegrass, Italian (Lolium multiflorum); assay: Test A postemergence, Italian ryegrass; conditions: visual injury, 0 to 100 scale (0 no effect, 100 complete control), approximately 10 days
Summary of the method: as §1

[9] = test system: pigweed (Amaranthus retroflexus); assay: Test A preemergence, pigweed; conditions: 0 to 100 scale (0 no effect, 100 complete control)
Summary of the method: as §1

[10] = test system: pigweed (Amaranthus retroflexus); assay: Test A postemergence, pigweed; conditions: visual injury, 0 to 100 scale (0 no effect, 100 complete control), approximately 10 days
Summary of the method: as §1

[11] = test system: sedge, umbrella (small-flower umbrella sedge, Cyperus difformis); assay: Test B flooded paddy test, umbrella sedge; conditions: applied to paddy water, visual rating after 13 to 15 days, scale 0 (no effect) to 100 (complete control)
Summary of the method: as §2

[12] = test system: barnyardgrass (Echinochloa crus-galli); assay: Test B flooded paddy test, barnyardgrass; conditions: applied to paddy water, visual rating after 13 to 15 days, scale 0 (no effect) to 100 (complete control)
Summary of the method: as §2

[13] = test system: ragweed (common ragweed, Ambrosia elatior); assay: Test A preemergence, ragweed; conditions: 0 to 100 scale (0 no effect, 100 complete control)
Summary of the method: as §1

[14] = test system: kochia (Kochia scoparia); assay: Test A postemergence, kochia; conditions: visual injury, 0 to 100 scale (0 no effect, 100 complete control), approximately 10 days
Summary of the method: as §1

[15] = test system: galium (catchweed bedstraw, Galium aparine); assay: Test A postemergence, galium; conditions: visual injury, 0 to 100 scale (0 no effect, 100 complete control), approximately 10 days
Summary of the method: as §1

[16] = test system: ducksalad (Heteranthera limosa); assay: Test B flooded paddy test, ducksalad; conditions: applied to paddy water, visual rating after 13 to 15 days, scale 0 (no effect) to 100 (complete control)
Summary of the method: as §2

[17] = test system: foxtail, giant (Setaria faberii); assay: Test A postemergence, giant foxtail; conditions: visual injury, 0 to 100 scale (0 no effect, 100 complete control), approximately 10 days
Summary of the method: as §1

[18] = test system: blackgrass (Alopecurus myosuroides); assay: Test A postemergence, blackgrass; conditions: visual injury, 0 to 100 scale (0 no effect, 100 complete control), approximately 10 days
Summary of the method: as §1

[19] = test system: kochia (Kochia scoparia); assay: Test A preemergence, kochia; conditions: 0 to 100 scale (0 no effect, 100 complete control)
Summary of the method: as §1

[20] = test system: barnyardgrass (Echinochloa crus-galli); assay: Test A preemergence, barnyardgrass; conditions: 0 to 100 scale (0 no effect, 100 complete control)
Summary of the method: as §1

SMILES | Plant response rating, Corn ([1]; 125 g ai/ha) | Plant response rating, Corn ([1]; 500 g ai/ha) | Plant response rating, Ryegrass, Italian ([2]; 125 g ai/ha) | Plant response rating, Ryegrass, Italian ([2]; 500 g ai/ha) | Plant response rating, Barnyardgrass ([3]; 125 g ai/ha) | Plant response rating, Barnyardgrass ([3]; 500 g ai/ha) | Plant response rating, Ragweed ([4]; 125 g ai/ha) | Plant response rating, Ragweed ([4]; 500 g ai/ha) | Plant response rating, Foxtail, Giant ([5]; 125 g ai/ha) | Plant response rating, Foxtail, Giant ([5]; 500 g ai/ha) | Plant response rating, Wheat ([7]; 125 g ai/ha) | Plant response rating, Wheat ([7]; 500 g ai/ha) | Plant response rating, Ryegrass, Italian ([8]; 125 g ai/ha) | Plant response rating, Ryegrass, Italian ([8]; 500 g ai/ha) | Plant response rating, Pigweed ([9]; 125 g ai/ha) | Plant response rating, Pigweed ([9]; 500 g ai/ha) | Plant response rating, Pigweed ([10]; 125 g ai/ha) | Plant response rating, Pigweed ([10]; 500 g ai/ha) | Plant response rating, Ragweed ([13]; 125 g ai/ha) | Plant response rating, Ragweed ([13]; 500 g ai/ha) | other results
O=C1NCC(c2cccc(Oc3ccccn3)c2)C1C(=O)Nc1ccc(F)c(F)c1F (stereo not drawn) [Compound 42] | 0 | 0 | 0 | 0 | 40 | 60 | 0 | 0 | 80 | 90 | 0 | 0 | 0 | 0 | 0 | 10 | 0 | 0 | 0 | 0 | Plant response rating, Rice (Flood) ([6]; 500 g ai/ha): 0; Plant response rating, Sedge, Umbrella (Flood) ([11]; 500 g ai/ha): 0; Plant response rating, Barnyardgrass (Flood) ([12]; 500 g ai/ha): 0; Plant response rating, Kochia ([14]; 125 g ai/ha): 0; Plant response rating, Kochia ([14]; 500 g ai/ha): 0; Plant response rating, Galium ([15]; 125 g ai/ha): 0; Plant response rating, Galium ([15]; 500 g ai/ha): 30; Plant response rating, Ducksalad (Flood) ([16]; 500 g ai/ha): 80; Plant response rating, Foxtail, Giant ([17]; 125 g ai/ha): 50; Plant response rating, Foxtail, Giant ([17]; 500 g ai/ha): 70; Plant response rating, Blackgrass ([18]; 125 g ai/ha): 0; Plant response rating, Blackgrass ([18]; 500 g ai/ha): 0; Plant response rating, Kochia ([19]; 125 g ai/ha): 0; Plant response rating, Kochia ([19]; 500 g ai/ha): 0; Plant response rating, Barnyardgrass ([20]; 125 g ai/ha): 40; Plant response rating, Barnyardgrass ([20]; 500 g ai/ha): 80
CN1CC(c2cccc(OC(F)(F)C(F)OC(F)(F)F)c2)C(C(=O)Nc2cccc(F)c2F)C1=O (stereo not drawn) [Compound 48] | 0 | 40 | 30 | 30 | 20 | 50 | 0 | 0 | 80 | 90 | 0 | 30 | 0 | 40 | 70 | 70 | 60 | 90 | 0 | 0 | Plant response rating, Rice (Flood) ([6]; 250 g ai/ha): 0; Plant response rating, Sedge, Umbrella (Flood) ([11]; 250 g ai/ha): 0; Plant response rating, Barnyardgrass (Flood) ([12]; 250 g ai/ha): 0; Plant response rating, Kochia ([14]; 125 g ai/ha): 30; Plant response rating, Kochia ([14]; 500 g ai/ha): 70; Plant response rating, Galium ([15]; 125 g ai/ha): 60; Plant response rating, Galium ([15]; 500 g ai/ha): 60; Plant response rating, Ducksalad (Flood) ([16]; 250 g ai/ha): 80; Plant response rating, Foxtail, Giant ([17]; 125 g ai/ha): 60; Plant response rating, Foxtail, Giant ([17]; 500 g ai/ha): 80; Plant response rating, Blackgrass ([18]; 125 g ai/ha): 0; Plant response rating, Blackgrass ([18]; 500 g ai/ha): 0; Plant response rating, Kochia ([19]; 125 g ai/ha): 0; Plant response rating, Kochia ([19]; 500 g ai/ha): 20; Plant response rating, Barnyardgrass ([20]; 125 g ai/ha): 80; Plant response rating, Barnyardgrass ([20]; 500 g ai/ha): 90
